From publication PMC6211253, “Design of selective COX-2 inhibitors in the (aza)indazole series. Chemistry, in vitro studies, radiochemistry and evaluations in rats of a [^18F] PET tracer” (Journal of Enzyme Inhibition and Medicinal Chemistry, 2018)
Read-outs that look alike come from different tables or passages of the source.

Key:
COX-2 = biological target: T1, COX-2 (Rattus norvegicus, UniProt P35355); experiment: Ex vivo cerebral biodistribution and blocking studies in quinolinic acid lesioned rats; parameters: species or system Wistar rats
T1 construct: from tissue; host or cells: brain regions of QA-lesioned Wistar rats (in vivo injection, ex vivo counting)
T1 sequence (P35355 18-604): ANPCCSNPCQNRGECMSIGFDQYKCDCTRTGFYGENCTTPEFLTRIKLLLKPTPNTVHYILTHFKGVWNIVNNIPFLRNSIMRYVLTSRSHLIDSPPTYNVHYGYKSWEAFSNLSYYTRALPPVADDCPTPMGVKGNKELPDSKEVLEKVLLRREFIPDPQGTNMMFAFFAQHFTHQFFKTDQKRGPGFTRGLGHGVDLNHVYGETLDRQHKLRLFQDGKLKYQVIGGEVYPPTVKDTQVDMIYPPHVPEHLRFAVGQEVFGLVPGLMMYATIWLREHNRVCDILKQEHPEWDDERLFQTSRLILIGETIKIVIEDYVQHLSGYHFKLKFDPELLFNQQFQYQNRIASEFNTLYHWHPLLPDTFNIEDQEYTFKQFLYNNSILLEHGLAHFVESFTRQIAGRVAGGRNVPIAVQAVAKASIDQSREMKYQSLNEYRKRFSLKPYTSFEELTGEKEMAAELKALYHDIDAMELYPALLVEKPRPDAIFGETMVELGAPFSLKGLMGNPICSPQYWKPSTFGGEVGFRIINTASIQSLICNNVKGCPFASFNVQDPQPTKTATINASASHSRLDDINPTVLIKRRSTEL
Excerpt: This model consists of a unilateral intrastriatal injection of quinolinic acid to induce excitotoxicity mediated via NMDA receptor activation. This animal model is well known in the literature to produce an inflammatory reaction induced by COX-2 activation in lesioned cerebral parenchyma.
The cerebral biodistribution of [^18F]16 in rats lesioned with QA was expressed as percent of injected dose per gram of tissue (%ID/g) and is shown in Figure 3.
Figure 3. Cerebral biodistribution of [^18F]16, 60 min after i.v. injection in rats, 7 days after focal intrastriatal injection of 150 nmol of quinolinic acid. In the “celecoxib” and “cold 16” groups, animals received an i.v. pre-injection (15 min) of the corresponding compound (3 mg/kg). Results are expressed as % injected dose/g tissue ± SEM. Cx: cortex; Stri: striatum; Hip: hippocampus, Cb: cerebellum.
Blocking in vivo experiments, consisting of a pretreatment with either celecoxib or cold 16 (3 mg/kg) 15 min before injection of the radiotracer, are also presented in Figure 3. […] This confirmed that the low in vivo accumulation observed consisted of nonspecific binding.
Animals. All procedures were conducted in accordance with the requirements of the European Community Council for the care of laboratory animals 2010/63/EU, and approved by the regional ethical committee (Authorization N°2015022011523044). Experiments were carried out on adult Wistar rats (Centre d’Elevage René Janvier, Le Genest-St-Isle, France) weighing 276 ± 19 g at the beginning of the experiments. Animals were housed in groups of two per cage in a temperature and humidity controlled environment (temperature 21 °C ± 1 °C; hygrometry 55% ± 5%), under a 12 h light/dark cycle with food and water available ad libitum.
Surgery: Surgery was performed under isoflurane (AErrane, Baxter, France) anaesthesia (4% for anaesthesia induction and thereafter 2% for its maintenance, in N2O-O2: 70%-30%). The animal's body temperature (36.8 ± 0.5 °C) was monitored with a homoeothermic probe throughout surgery. A unilateral striatal QA lesion was induced in 18 adult male Wistar rats as previously described^14. This procedure results in a well-delineated reproducible excitotoxic lesion to the striatum and ipsilateral cortex.
Ex vivo cerebral biodistribution studies were performed with [^18F]16 in QA lesioned animals at 7 days post lesion (n=6 per group). Rats were i.v. injected (penis vein) with [^18F]16 (2.5 ± 1 MBq) in 300 μL normal saline). […] Animals were sacrificed by decapitation 60 min post [^18F]16 injection. The whole brain was quickly removed and several brain areas (cerebellum, left and right hippocampus, left and right frontal cortex, and left and right striatum), together with the femur, to detect potential in vivo defluorination of the tracer, were dissected and weighed, and their radioactivity was measured using an automated gamma counter (2480 Gamma counter Wizard, Perkin Elmer). The percentage of injected dose per gram tissue (%ID/g) was calculated by comparison with samples to standard dilutions of the initial injected solution.
Statistical analysis: Results were expressed as mean ± standard error of the mean (SEM). Groups of rats (control vs unlabeled compound 16 preinjection, or control vs celecoxib preinjection) were compared using the Mann–Whitney test. Comparisons of binding between ipsi- and contralateral brain structures were performed using the Wilcoxon one-tailed test. The level of significance was p<0.05 (XLStat software®).

human recombinant COX-2 = biological target: T2, human recombinant COX-2 (Homo sapiens, UniProt P35354); experiment: COX Inhibitor Screening Kit (Cayman), fluorescence-based, COX-2 inhibition; assay type: biochemical; conditions: for fold decrease in COX-2 activity versus analog: 41 and 42 versus 14, 17 versus 16; for COX-2 activity in words: SAR discussion
T2 construct: purchased Cayman Chemical 700100, No. 760111
T2 sequence (P35354 18-604): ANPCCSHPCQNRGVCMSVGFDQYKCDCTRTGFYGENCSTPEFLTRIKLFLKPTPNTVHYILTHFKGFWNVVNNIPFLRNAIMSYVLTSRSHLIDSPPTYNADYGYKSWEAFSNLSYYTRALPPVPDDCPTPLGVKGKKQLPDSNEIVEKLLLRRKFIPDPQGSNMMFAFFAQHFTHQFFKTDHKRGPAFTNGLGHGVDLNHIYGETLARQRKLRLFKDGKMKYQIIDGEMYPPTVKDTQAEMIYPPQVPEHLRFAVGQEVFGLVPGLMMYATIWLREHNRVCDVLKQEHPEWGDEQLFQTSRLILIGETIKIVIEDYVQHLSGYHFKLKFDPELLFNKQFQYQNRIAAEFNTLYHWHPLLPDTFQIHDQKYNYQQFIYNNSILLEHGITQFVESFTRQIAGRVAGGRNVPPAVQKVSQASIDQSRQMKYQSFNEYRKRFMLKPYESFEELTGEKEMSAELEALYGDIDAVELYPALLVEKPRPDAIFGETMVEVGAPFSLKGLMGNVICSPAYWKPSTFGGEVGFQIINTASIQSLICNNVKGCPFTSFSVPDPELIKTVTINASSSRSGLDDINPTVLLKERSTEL

[1] = means of triplicates, except DuP-697 (n = 27) and Celecoxib (n = 5)

SMILES	IC50 (human recombinant COX-2; [1])	melting point	further results
NS(=O)(=O)c1ccc(-n2nc3ccccc3c2-c2ccc([18F])cc2)cc1 [[^18F]16, 4-[3-(4-[^18F]Fluorophenyl)indazol-2-yl]benzenesulfonamide]	–	–	defluorination in vivo (COX-2; from femur uptake, rats): negligible defluorination; decrease in accumulation after blocking pretreatment (COX-2; pretreatment with celecoxib or cold 16 (3 mg/kg i.v.) 15 min before radiotracer): In none of these experiments was a decrease in [^18F]16 accumulation observed; bone uptake in the femur (COX-2; rats, 60 min after i.v. injection): 0.154 ± 0.032 %ID/g tissue; accumulation in activated brain areas compared to contralateral striatum and cortex (COX-2; rats, 7 days after intrastriatal QA, 60 min after i.v. injection): no statistically significant difference; passage through the blood-brain-barrier (BBB) (COX-2; rats, preliminary results): low passage
CS(=O)(=O)c1ccc(-n2nc3ccccc3c2-c2ccc(F)cc2)cc1 [compound 14, 3-(4-Fluorophenyl)-2-(4-methylsulfonylphenyl)indazole]	1.46 ± 0.5 µM	173 to 175 °C	IC50 (human recombinant COX-2): ~1 µM
NS(=O)(=O)c1ccc(-n2nc3ccccc3c2-c2cccc(F)c2)cc1 [compound 17, 4-[3-(3-Fluorophenyl)indazol-2-yl]benzenesulfonamide]	4.2 ± 0.4 µM	> 250 °C	fold decrease in COX-2 activity versus analog (human recombinant COX-2): 10 fold
Cc1ccc(-c2c3ccccc3nn2-c2ccc(S(C)(=O)=O)cc2)cc1F [compound 18, 3-(3-Fluoro-4-methyl-phenyl)-2-(4-methylsulfonylphenyl)indazole]	1.03 ± 0.2 µM	149 to 151 °C	–
CCOc1ccc(-c2c3ccccc3nn2-c2ccc(S(C)(=O)=O)cc2)cc1C(F)(F)F [compound 20, 3-[4-Ethoxy-3-(trifluoromethyl)phenyl]-2-(4-methylsulfonylphenyl)indazole]	–	196 to 198 °C	–
CS(=O)(=O)c1ccc(-n2nc3ccccc3c2-c2ccc(Cl)c(C(F)(F)F)c2)cc1 [compound 21, 3-[4-Chloro-3-(trifluoromethyl)phenyl]-2-(4-methylsulfonylphenyl)indazole]	1.1 ± 0.3 µM	197 to 199 °C	–
CS(=O)(=O)c1ccc(-n2nc3ccccc3c2-c2ccc(F)nc2)cc1 [compound 22, 3-(6-Fluoro-3-pyridyl)-2-(4-methylsulfonylphenyl)indazole]	> 25 µM	216 to 218 °C	–
CS(=O)(=O)c1ccc(-n2nc3ccccc3c2-c2ccc(F)nc2F)cc1 [compound 23, 3-(2,6-Difluoro-3-pyridyl)-2-(4-methylsulfonylphenyl)indazole]	> 25 µM	84 to 86 °C	–
COc1ccc(-c2c3ccccc3nn2-c2ccc(S(C)(=O)=O)cc2)cn1 [compound 24, 3-(6-Methoxy-3-pyridyl)-2-(4-methylsulfonylphenyl)indazole]	2.98 ± 0.4 µM	146 to 148 °C	COX-2 activity in words (human recombinant COX-2): moderate activity
COc1cncc(-c2c3ccccc3nn2-c2ccc(S(C)(=O)=O)cc2)c1 [compound 25, 3-(5-Methoxy-3-pyridyl)-2-(4-methylsulfonylphenyl)indazole]	> 25 µM	215 to 217 °C	–
CCOc1ncc(-c2c3ccccc3nn2-c2ccc(S(C)(=O)=O)cc2)cn1 [compound 27, 3-(2-Ethoxypyrimidin-5-yl)-2-(4-methylsulfonylphenyl)indazole]	> 25 µM	217 to 219 °C	COX-2 activity in words (human recombinant COX-2): totally inactive
CS(=O)(=O)c1ccc(-n2nc3cccnc3c2-c2ccc(F)cc2)cc1 [compound 39, 3-(4-Fluorophenyl)-2-(4-methylsulfonylphenyl)pyrazolo[4,3-b]pyridine]	> 25 µM	219 to 221 °C	–

Second part, led by results:

IC50 (human recombinant COX-2; [1])	melting point	SMILES	further results
2.3 ± 0.5 µM	198 to 200 °C	CS(=O)(=O)c1ccc(-c2c3ccccc3nn2-c2ccc(F)cc2)cc1 [compound 15, 2-(4-Fluorophenyl)-3-(4-methylsulfonylphenyl)indazole]	IC50 (human recombinant COX-2): ≤ 2 µM
> 25 µM	138 to 140 °C	CCOc1ccc(-c2c3ccccc3nn2-c2ccc(S(C)(=O)=O)cc2)cc1F [compound 19, 3-(4-Ethoxy-3-fluoro-phenyl)-2-(4-methylsulfonylphenyl)indazole]	–
4.46 ± 0.4 µM	147 to 149 °C	CCOc1ccc(-c2c3ccccc3nn2-c2ccc(S(C)(=O)=O)cc2)cn1 [compound 26, 3-(6-Ethoxy-3-pyridyl)-2-(4-methylsulfonylphenyl)indazole]	COX-2 activity in words (human recombinant COX-2): moderate activity
4.42 ± 0.6 µM	–	CS(=O)(=O)c1ccc(-n2nc3cnccc3c2-c2ccc(F)cc2)cc1 [compound 40, 3-(4-Fluorophenyl)-2-(4-methylsulfonylphenyl)pyrazolo[3,4-c]pyridine]	–
4.75 ± 0.6 µM	–	CS(=O)(=O)c1ccc(-n2nc3ncccc3c2-c2ccc(F)cc2)cc1 [compound 41, 3-(4-Fluorophenyl)-2-(4-methylsulfonylphenyl)pyrazolo[3,4-b]pyridine]	fold decrease in COX-2 activity versus analog (human recombinant COX-2): 4 fold
–	221 to 223 °C	NS(=O)(=O)c1ccc(-n2nc3ccccc3c2-c2ccc([N+](=O)[O-])cc2)cc1 [compound 42, 4-[3-(4-Nitrophenyl)indazol-2-yl]benzenesulfonamide]	fold decrease in COX-2 activity versus analog (human recombinant COX-2): 4 fold
